Test results taken from paper PMC3749252 (Nature chemical biology, 2013).

Columns and labels:
mouse Smoothened (mSmo) [1] = target: T1, mouse Smoothened (mSmo) (Mus musculus, UniProt P56726); assay: competition of binding to 20-OHC affinity beads, immunoblot
T1 sequence (P56726 32-236): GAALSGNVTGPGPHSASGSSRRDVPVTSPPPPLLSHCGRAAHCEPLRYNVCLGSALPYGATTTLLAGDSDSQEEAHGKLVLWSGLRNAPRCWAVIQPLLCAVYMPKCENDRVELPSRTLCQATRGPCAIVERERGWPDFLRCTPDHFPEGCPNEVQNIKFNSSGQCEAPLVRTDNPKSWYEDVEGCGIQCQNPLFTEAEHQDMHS

mouse Smoothened (mSmo) [2] = target: T1, mouse Smoothened (mSmo); assay: competition of 22-NHC bead binding

| SMILES | competition of binding to 20-OHC affinity beads, immunoblot (mouse Smoothened (mSmo) [1]) | competition of 22-NHC bead binding; 20-OHC affinity beads, immunoblot (mouse Smoothened (mSmo) [2]) |
| --- | --- | --- |
| C[C@H](CCCC(C)(C)O)[C@H]1CC[C@H]2[C@@H]3CC=C4C[C@@H](O)CC[C@]4(C)[C@H]3CC[C@]12C [25-OHC] | binding of mSmo and mSmoCRD to 20-OHC beads was competed by the active oxysterol 25-OHC | – |
| CC(C)CCC[C@](C)(O)[C@H]1CC[C@H]2[C@@H]3CC=C4C[C@@H](O)CC[C@]4(C)[C@H]3CC[C@@]21C [20(S)-hydroxycholesterol] | – | Binding of mSmoCRD to 22-NHC beads was competed by 20-OHC and 20-OHC-Pent, but not by 7-OHC |
